Entries after “also recorded” stand apart in the source; their conditions may differ. Read-outs that look alike come from different tables or passages of the source.
Key:
[1] = tested on: PAR1; details: cited from earlier work
[2] = tested on: Akt; details: established tumors treated for 5 days; cited from earlier work
[3] = tested on: GFP/MDA-MB-231; details: GFP/MDA-MB-231 (i.v.), 10 mg/kg (s.c. 5 days per week), single agent, p < 0.001; cited from earlier work
[4] = tested on: PAR1; details: guinea pig platelets; cited from earlier work
[5] = tested on: PAR1; details: guinea pigs, intravenous administration; cited from earlier work
[6] = tested on: PAR1-MCF7/N55; details: cited from earlier work
[7] = tested on: MDA-MB-231; details: MDA-MB-231 (s.q.), 10 mg/kg (i.p. q2d) combination with docetaxel (10 mg/kg i.p. once weekly), p < 0.01; cited from earlier work
[8] = tested on: SKOV3; details: SKOV3 (i.p.), 10 mg/kg (s.c. 5 days per week), single agent; cited from earlier work
[9] = tested on: PAR1-expressing breast cancer cells; details: through Akt; cited from earlier work
[10] = tested on: OVCAR4; details: cited from earlier work
[11] = tested on: PAR1; details: guinea pigs, cited from earlier work
[12] = tested on: CXCR1/2; details: sepsis, SIRS, DIC, septic mice; cited from earlier work
[13] = tested on: PAR4; details: guinea pigs, cited from earlier work
[14] = tested on: PAR4; details: cited from earlier work
[15] = tested on: PAR1; details: selectivity for PAR4; cited from earlier work
[16] = tested on: PAR4; details: thrombin-preactivated human platelets; cited from earlier work
[17] = tested on: PAR1; details: cited from earlier work; for Outcome: sepsis, SIRS, DIC, mice
[18] = tested on: PAR1; details: rat aortic rings, vascular tissue preparations; cited from earlier work
[19] = tested on: PAR4; details: cited from earlier work; remark: listed apart in the source
[20] = tested on: PAR4; details: Inflammation/paw edema, carrageenan, mice; cited from earlier work
[21] = tested on: PAR4; details: cited from earlier work; remark: listed apart in the source
[22] = tested on: PAR4; details: wire injury to the carotid artery of mice, fluorescent platelets; cited from earlier work
[23] = tested on: PAR4; details: sepsis, SIRS, DIC, mice; cited from earlier work
[24] = tested on: PAR4; details: cited from earlier work; remark: listed apart in the source
[25] = tested on: PAR1; details: at higher concentrations; cited from earlier work
[26] = tested on: PAR4; details: mice, induced by AYPGKF plus epinephrine; cited from earlier work
[27] = tested on: PAR4; details: PAR4 agonist in mouse knee joint; cited from earlier work
[28] = tested on: thromboxane, ADP, collagen, or GPIb/IX/V receptors; details: cited from earlier work
[29] = tested on: human neutrophils; details: cited from earlier work
[30] = tested on: PAR4; details: cited from earlier work; remark: listed apart in the source
[31] = tested on: breast MCF-7 cells and melanoma SK-Mel2 cells; details: inhibition of growth, cell line not specified (MCF-7 and SK-Mel2 tested); cited from earlier work
[32] = mouse, in vivo

C15H31CONH-KKSRALF-NH2 [Pepducin P1pal-7]
p38 MAPK activation ([1]; human platelets, collagen): blocked p38 MAPK activation | collagen-induced platelet aggregation ([1]; human platelets): inhibition of collagen-induced platelet aggregation | propagation of platelet–platelet thrombi ([1]; human whole blood, arterial flow conditions): significantly reduced | phosphorylation of Akt [2]: significantly inhibited | Efficacy: reduction in metastasis to lung [3]: 88% | Outcome (platelet aggregation) [4]: Inhibition of guinea pigs platelet aggregation | collagen-induced thrombocytopenia [5]: protected from collagen-induced thrombocytopenia | Efficacy: tumor burden, reduction in tumor growth ([6]; PAR1-MCF7/N55 (s.q.), 10 mg/kg (s.c. q2d), single agent, p < 0.01): 62% | angiogenesis of breast cancers [6]: almost completely blocked | Efficacy: tumor burden, reduction in tumor growth [7]: 95% | Efficacy: ascites formation [8]: Ascites formation, complete inhibition of ascites | viability of PAR1-expressing breast cancer cells [9]: inhibited the viability | Efficacy: diaphragm metastasis / peritoneal dissemination ([10]; OVCAR4 (i.p.), 3.6 mg/kg (i.p. q2d) combination with docetaxel (10 mg/kg i.p. once weekly), p < 0.005): Significant reduction in diaphragm metastasis (p < 0.005) | Efficacy: inhibition in ascites formation ([10]; OVCAR4 (i.p.), 10 mg/kg (i.p. q2d), single agent): 60% | ascites production in peritoneal ovarian cancer ([10]; cell line not given): significantly inhibited | angiogenesis of peritoneal ovarian cancers [10]: almost completely blocked | prolongation of the occlusion time ([11]; 0.3 mg/kg i.v., carotid injury model): approximately 50% | Outcome (arterial occlusion time) ([11]; intravenous, carotid artery FeCl3 injury model): prolonged the mean occlusion time; also recorded: Prolonged collagen-induced arterial occlusion time in guinea pigs

N-LCA-YSRVGRSVTD-NH2 [x1/2LCA-i1]
Outcome [12]: CXCR1/2 pepducins reduced organ damage, inhibited neutrophil migration, improved survival, and inhibited DIC

N-pal-ATGAPRLPST-NH2 [Pepducin P4pal-i1]
decrease of arterial occlusion ([13]; carotid injury model, single agent): approximately 50% | Outcome (arterial occlusion) ([13]; when combined with bivalirudin or P1pal-7): Inhibition of arterial occlusion in guinea pigs, when combined with bivalirudin or P1pal-7 | arterial thrombosis, combined with bivalirudin [13]: suppression of arterial thrombosis in guinea pigs to a much higher degree than bivalirudin alone | human platelet aggregation, combined with bivalirudin [14]: significant inhibition of human platelet aggregation | effect on PAR1-induced platelet aggregation [15]: without affecting | Outcome (epinephrine-induced Ca2+ flux and aggregation) [16]: inhibited; also recorded: Inhibition of epinephrine-induced Ca^2+ flux

N-pal-AVANRSKKSRALF-NH2 [Pepducin P1pal-13]
Outcome [17]: Temporally modulated survival, vascular leakage, and DIC | survival and DIC, treatment at late time points (agonist) ([17]; septic mice, by inhibiting leakage of endothelial cell tight junctions): improved survival and prevented DIC

N-pal-RCLSSSAVANRSKKSRALF-NH2 [Pepducin P1pal-19]
Outcome (agonist activity: Ca2+ signal, relaxation, prostaglandin E2 release) [18]: promote Ca^2+ signals, prostaglandin E2 release, and persistent relaxation of rat aortic rings in a concentration-dependent manner; also recorded: Promotes Ca^2+ signal, relaxation of rat aortic rings, and prostaglandin E2 release

N-pal-RLAHGYRRGS-NH2 [Rev-P4pal-10, reference compound]
Target (activity class) ([19]; reverse-sequence control): Inactive

N-pal-RSLSSSAVANRS-NH2 [Pepducin P1pal-12S]
Outcome [17]: Temporally modulated survival, vascular leakage, and DIC | survival and DIC, treatment at early time points ([17]; septic mice): improved survival and prevented DIC | survival and DIC, treatment at late time points (antagonist) ([17]; septic mice): but not late time points

N-pal-RTLFKAHMGQKHRAMR-NH2 [x1/2pal-i3]
Outcome [12]: CXCR1/2 pepducins reduced organ damage, inhibited neutrophil migration, improved survival, and inhibited DIC

N-pal-SGRRYGHALR-NH2 [Pepducin P4pal-10]
AYPGKF (PAR4 agonist)-induced aggregation [19]: completely blocked | human platelet aggregation to PAR4 agonists [19]: inhibited | Outcome [20]: Reduced edema and granulocyte recruitment induced by carrageenan | Outcome (tail bleeding time) ([21]; mice infused with pepducin): prolonged tail-bleeding times and unstable thrombi formation; also recorded: Prolonged tail bleeding time in mice | extension of bleeding time ([21]; mice, intravenous injection, 4 h point): approximately twofold | bleeding time ([21]; mice, intravenous injection, 24 h time point): returned to baseline | increase in bleeding time ([21]; mice, intravenous injection, after 5 min, maintained for 1 h): threefold to fivefold | prolongation of bleeding time ([21]; mice, subcutaneous injection of 3 mg/kg, 4 h after injection): sixfold | PD half-life ([21]; mice, subcutaneous injection of 3 mg/kg): approximately 14 h | Outcome (platelet accumulation) [22]: significant delay in accumulation; also recorded: Delayed platelet accumulation | Outcome [23]: protected against systemic inflammation and DIC; also recorded: Reduced organ damage and inflammatory mediators, inhibited neutrophil migration | Outcome (thrombin generation) [24]: delayed the generation of thrombin | block of PAR1 activation [25]: partially block | systemic thrombus formation [26]: protected against systemic thrombus formation | Outcome (joint inflammation) [27]: block the proinflammatory and pronociceptive effects of a PAR4 agonist in the mouse knee joint and alleviate acute joint inflammation; also recorded: Reduced agonist induced joint vascular conductance and edema | effect on ADP, thromboxane, and GPIb/IX/V receptors [28]: did not affect | migration of human neutrophils to IP-10, SDF-1α, and S1P [29]: no effect | migration of human neutrophils to thrombin [29]: completely blocked | Outcome (infarct size) ([30]; ischemia/reperfusion in rats): Reduced infarct size in ischemia/reperfusion in rats | reduction of myocardium infarct size ([30]; rats, intravenous bolus of 10 μg/kg, I/R injury model): approximately 20%

Pal-LTYAWHTSFK [SMO-i2-12]
IC50 [31]: 60 nM

pal-CGRRYGHALR [[^14C]-P4pal-10C]
increase of radioactivity in urine [32]: fivefold | radioactivity in urine [32]: detected | tissues in which radioactivity appeared ([32]; iv, 1.4 mg/kg): liver, kidney, lungs, and spleen, and lesser amounts to other tissues | tissues in which radioactivity appeared ([32]; iv, 14 mg/kg): kidney, lungs, liver, and spleen with lesser radioactivity appearing in the heart, blood, muscle, and fat, but not the brain | tissues in which radioactivity appeared ([32]; sc, 1 mg/kg): liver, kidney, lungs, and blood | tissues in which radioactivity appeared ([32]; sc, 10 mg/kg): fairly even distribution of radioactivity to the kidney, liver, spleen, blood, heart, and lungs, with lesser amounts to muscle and fat, but not to brain
